Laboratory results from PMC4055595, “Pharmacokinetic Compatibility of Ginsenosides and Schisandra Lignans in Shengmai-san: From the Perspective of P-Glycoprotein” (PLoS ONE, 2014).

What was measured:
Caco-2 cell monolayer = assay: Transport of digoxin and ginsenosides across Caco-2 cell monolayer (efflux ratio); type: in vitro ADME, human; conditions: for Effect of verapamil on efflux ratio: Caco-2 cells, 10 µM verapamil; for Effect of SLE on BL-AP transport / efflux ratio: Caco-2 monolayer, SLE 2.0 and 10.0 µg/mL
Experimental: Caco-2 cells were purchased from American Type Culture Collection (Manassas, VA), and were routinely cultured in Dulbecco's modified Eagle's medium supplemented with 10% fetal bovine serum, 1% nonessential amino acids, 1 mM sodium pyruvate, and 100 U/mL penicillin and streptomycin (Invitrogen, Carlsbad, CA). The cells were grown in an atmosphere of 5% CO2 at 37°C, and cell medium was changed every other day. Cells were seeded at a density of 4×10^4 cells per well in 24-well microporous polycarbonate insert filter plates (0.4-µm pore size) (Corning Costar plates; Corning Life Sciences, Lowell, MA) and grown for 15 days in Caco-2 growth medium. The medium was replaced every 3 to 4 days. Before running the assay, the culture medium was replaced by HBSS buffer supplemented with 10 mM Hepes and 20 mM glucose.
Caco-2 cells with a density of 1.2×10^5 cells/insert were seeded on a permeable polycarbonate insert (Millicell cell culture inserts, 0.4 µm pore size, 12 mm diameter; Millipore Corporation) in 24-well tissue culture plates and were used for the experiment 18 to 21 days after seeding. [^14C]Mannitol permeability and transepithelial electrical resistance measurements (Millicell-ERS epithelial volt-ohm meter; Millipore Corporation) were used to evaluate the integrity of Caco-2 cell monolayer. The monolayer used in transport studies had transepithelial electrical resistance values exceeding 600 Ω·cm^2, and the leakage of mannitol was less than 0.3% of the dose/h. Before transport initiation studies, the cell monolayer was first washed with warm HBSS (pH 7.4) twice. HBSS containing SLE (2.0 and 10.0 µg/mL) or 1% ethanol (control) was then loaded into both apical and basolateral chambers. After incubation at 37°C for 1.5 h, 100 µg/mL of GE was added to either the apical or basolateral side to evaluate the transport in absorptive and secretory directions, and the cell monolayer was incubated for another 2 h. 10 µM verapamil was used as a positive control inhibitor. At the designated time point, samples were taken from the receiving chamber for analysis. Ginsenosides were determined by LC-MS. All experiments were conducted in triplicate.
For the transport assay, the apparent permeability (P app, cm/s) in each direction (A→B and B→A) was calculated as follows, where A is the surface area of the membrane inserts (0.0804 cm^2), C 0 is the initial concentration of the compound applied in the donor compartment (2 µM), and △Q is the amount (micromoles) of compound transported over time △t (5 h = 18,000 s): [drawing 1]
The efflux ratio (ER) was a dimensionless number calculated as the ratio of the apparent permeability in the B→A direction divided by the apparent permeability in the A→B direction. [drawing 2]

P-gp = system: P-gp; set-up: method as in PMID 16557452; conditions: Caco-2 cell monolayer; cited from earlier work

Row | Effect of verapamil on efflux ratio (Caco-2 cell monolayer) | Effect of SLE on BL-AP transport / efflux ratio (Caco-2 cell monolayer) | Structure (SMILES) | Transport by P-gp (P-gp)
1 | decreased significantly | concentration dependently decrease | CC(C)=CCC[C@](C)(O[C@@H]1O[C@H](CO[C@@H]2O[C@H](CO)[C@@H](O)[C@H](O)[C@H]2O)[C@@H](O)[C@H](O)[C@H]1O)[C@H]1CC[C@]2(C)[C@@H]1[C@H](O)C[C@@H]1[C@@]3(C)CC[C@H](O[C@@H]4O[C@H](CO)[C@@H](O)[C@H](O)[C@H]4O[C@@H]4O[C@H](CO)[C@@H](O)[C@H](O)[C@H]4O)C(C)(C)[C@@H]3CC[C@]12C [Rb1, ginsenoside Rb1] | not be transported by P-gp
2 | decreased significantly | concentration dependently decrease | CC(C)=CCC[C@](C)(O[C@@H]1O[C@H](CO)[C@@H](O)[C@H](O)[C@H]1O)[C@H]1CC[C@]2(C)[C@@H]1[C@H](O)C[C@@H]1[C@@]3(C)CC[C@H](O[C@@H]4O[C@H](CO)[C@@H](O)[C@H](O)[C@H]4O[C@@H]4O[C@H](CO)[C@@H](O)[C@H](O)[C@H]4O)C(C)(C)[C@@H]3CC[C@]12C [Rd, ginsenoside Rd] | –
